“And” between values parts separate entries of the source, which are not always exact repeats. Equal entries are not always repeated.
Key:
[1] = Short-term Paigen-diet NASH mouse model: Compound #37 plasma concentration 1 hour after final dose; type: in vivo; conditions: for concentration at 1 h: male, C57Bl/6J, mouse, plasma, oral
Source text: After 21 days of treatment, mice were 4-hour fasted (9 am to 1 pm). One hour after the last dosing (noon), blood was collected by retro-orbital bleeding (maximal volume on EDTA) under isoflurane anesthesia to measure plasma triglycerides, total cholesterol, non-esterified fatty acid, ALT and AST. Mice were then sacrificed by cervical dislocation, and livers were harvested and weighed. Liver samples from the same lobe were dissected, frozen, and analyzed as described below.
The Paigen diet in the C57Bl/6J mouse strain typically results in an initial acute weight loss that recovers over time (Hebbard & George, 2011; vendor historical unpublished data). […] Dosing of this group was stopped on day 4 and the surviving mice were sacrificed on day 9, 1 hour after a final dose to analyze drug exposure. […] No mice died in the Compound #37 5 mg/kg/day or vehicle control groups (10 mice each group).
The death of animals in the Compound #37 40 mg/kg/day and 20 mg/kg/day groups appears to be related to synergistic weight loss due to a combination of the Paigen diet and the inappetence effects of Compound #37 observed in repeat-dose toxicity studies in rats and dogs. […] Compound #37 mean plasma concentration 1 hour after final dose administration on day 21 was 20.4 μM (±4.33 μM) and 112 μM (±26.0 μM) for the 5 mg/kg and 20 mg/kg groups, respectively. The Compound #37 mean plasma concentration 1 hour after final dose administration for the 4 animals on day 9 in the 40 mg/kg group was 136 μM (±37.1 μM). These exposures at 1 hour after dosing are approximately 2-fold higher than those observed in healthy mice and may be related to altered Compound #37 metabolism in this acute liver injury model.

ob/ob mice = assay: ob/ob mice: plasma triglycerides, non-esterified fatty acids, total cholesterol, insulin; type: in vivo, mouse; conditions: 8 weeks
Description: Groups of mice were either untreated (group 1) or treated for 8 weeks with vehicle (group 2), or with Compound #37 at 5 mg/kg (group 3), 10 mg/kg (group 4), or 20 mg/kg (group 5). Treatment was daily by oral gavage in vehicle (20% HPβCD). Values are presented as mean±standard error of the mean (sem). A t test was performed to compare the untreated group and the vehicle group. Then Compound #37-treated groups were compared to the vehicle-treated group with a 1-way ANOVA+Dunnett's post-test. […] For each test, a p<0.05 was considered significant. Of note, animal #39, group 1 was excluded from the statistical analysis, due to low values for all parameters measured. Some other values were considered as out-liners and excluded from the statistical analysis when the value was far below the mean minus 2 SD. Excluded values are marked with an asterisk in Tables 21-23.

HMGCoA = assay: Short-term Paigen-diet NASH mouse model: hepatic HMGCoA (HMG-CoAR) gene expression (RT-qPCR); type: in vivo; conditions: liver; for DDct: HMGCoA Dct relative to vehicle mean; for Dct: HMGCoA minus 18S; for 2DDct: HMGCoA relative expression to vehicle group, normalized to 18S; for HMGCoA: raw RT-qPCR value
Description: To investigate whether Compound #37 prevents the development of pathology associated with NASH and steatosis in an acute exploratory disease model, a study was conducted using a diet-induced acute liver steatosis model in mice. As described below, in this study, C57BL/6J mice were initiated on the Paigen diet and simultaneously treated with Compound #37 (5, 20, and 40 mg/kg/day) or vehicle control (20% HPβCD 10 mL/kg/day) by oral gavage for 21 days.
After acclimation, 8-week old male C57Bl/6J mice (Charles River) weighing about 25 g were randomized in 4 groups according their body weight and treated once daily around noon by oral gavage with vehicle, or Compound #37 at various for 21 days as follows: Group 1: vehicle-20% (2-hydroxypropyl)-β-cyclodextrin (HP-β-CD) (n=10); Group 2: Compound #37, 5 mg/kg (n=10) Group 3: Compound #37, 20 mg/kg (n=10) Group 4: Compound #37, 40 mg/kg (n=10). During the treatment period, body weight and food intake (measured over 24h) were measured 3 times per week and once a week, respectively. During the acclimation, all mice were fed a standard diet (Special Diets Services RM1 (E), product no. 801492) and tap water ad libitum. After the acclimation period, mice were fed until the end of the experiment with a 60% high fat Paigen diet (60 kcal % fat, 1.25% cholesterol, and 0.5% cholate; D11061901, Research Diet) and tap water ad libitum.
Gene expression analysis. Hepatic expression levels of genes involved in lipid metabolism (FAS, SREBP1, ACC1, SCD1), cholesterol metabolism (HMG-CoAR, LDLR), SREBP proteolysis (SCAP, INSIG1), ER stress (PERK), oxidative stress (NRF2), inflammation (MCP-1), and fibrosis (collagen 1α1) were quantified by RTqPCR. Expression level was normalized to 18S gene expression and relative expression to vehicle group was calculated with the […] method.

[2] = 5 mg/kg daily oral gavage, group mean
[3] = 5 mg/kg daily oral gavage, individual animal values, 5 mg/kg
[4] = 10 mg/kg daily oral gavage, group mean
[5] = 10 mg/kg daily oral gavage, individual animal values, 10 mg/kg
[6] = 20 mg/kg daily oral gavage, group mean
[7] = 20 mg/kg daily oral gavage, individual animal values, 20 mg/kg
[8] = Compound #37 5 mg/kg, group mean, n=10
[9] = Compound #37 5 mg/kg, individual animals, 5 mg/kg
[10] = Compound #37 20 mg/kg, group mean, n=6
[11] = Compound #37 20 mg/kg, individual animals, 20 mg/kg

**Q.** Which results are given for `CC(C)Cc1cc(-c2nc(-c3ccc(NS(=O)(=O)C(F)(F)F)cc3Cl)cs2)ccn1` [Compound 37, N-(3-chloro-4-(2-(2-isobutylpyridin-4-yl)thiazol-4-yl)phenyl)-1,1,1-trifluoromethanesulfonamide]?
**A.** exposure at 1 hour after dosing relative to healthy mice ([1]; acute liver injury model vs healthy mice): approximately 2 fold; concentration at 1 h ([1]; 5 mg/kg, day 21): 20.4 µM; concentration at 1 h ([1]; 20 mg/kg, day 21): 112 µM; concentration at 1 h ([1]; 40 mg/kg, day 9, 4 animals): 136 µM; plasma insulin (ob/ob mice; [2]): 274.1 μU/mL; plasma non-esterified fatty acids (ob/ob mice; [2]): 0.7 mM; plasma total cholesterol (ob/ob mice; [2]): 1.8 g/L; plasma triglycerides (ob/ob mice; [2]): 1.6 g/L; plasma insulin (ob/ob mice; 5 mg/kg daily oral gavage, individual animal values (* = excluded from statistical analysis), 5 mg/kg): 198.7 μU/mL and 262.7 μU/mL and 181.1 μU/mL and 250.5 μU/mL and 118.7 μU/mL and 394.6 μU/mL and 24.6* μU/mL and 374.6 μU/mL and 512.6 μU/mL and 173.1 μU/mL; plasma non-esterified fatty acids (ob/ob mice; [3]): 1.028 mM and 0.77 mM and 0.616 mM and 0.552 mM and 0.68 mM (2×) and 1.092 mM and 0.783 mM and 0.655 mM and 0.539 mM; plasma total cholesterol (ob/ob mice; [3]): 1.587 g/L and 1.903 g/L and 1.916 g/L and 1.853 g/L and 2.017 g/L and 1.537 g/L and 2.08 g/L and 1.625 g/L and 1.347 g/L and 1.638 g/L; plasma triglycerides (ob/ob mice; [3]): 1.283 g/L and 1.152 g/L and 1.038 g/L and 1.397 g/L (2×) and 1.593 g/L and 1.201 g/L and 1.609 g/L and 2.408 g/L and 2.504 g/L; plasma insulin (ob/ob mice; [4]): 357.3 μU/mL; plasma non-esterified fatty acids (ob/ob mice; [4]): 0.7 mM; plasma total cholesterol (ob/ob mice; [4]): 1.7 g/L; plasma triglycerides (ob/ob mice; [4]): 1.3 g/L; plasma insulin (ob/ob mice; [5]): 123.8 μU/mL and 457.7 μU/mL and 81.9 μU/mL and 949.0 μU/mL and 153.3 μU/mL and 62.6 μU/mL and 508.2 μU/mL and 904.4 μU/mL and 194.4 μU/mL and 137.5 μU/mL; plasma non-esterified fatty acids (ob/ob mice; [5]): 1.009 mM and 0.474 mM and 0.828 mM and 0.7 mM and 0.564 mM and 0.951 mM and 0.738 mM and 0.661 mM and 0.809 mM and 0.307 mM; plasma total cholesterol (ob/ob mice; [5]): 1.587 g/L and 1.865 g/L (2×) and 1.891 g/L (2×) and 1.827 g/L (2×) and 1.234 g/L and 1.651 g/L and 1.183 g/L; plasma triglycerides (ob/ob mice; [5]): 0.94 g/L and 1.12 g/L and 0.875 g/L and 1.218 g/L and 1.528 g/L and 1.299 g/L and 1.968 g/L and 1.381 g/L and 1.593 g/L and 0.777 g/L; plasma insulin (ob/ob mice; [6]): 444.1 μU/mL; plasma non-esterified fatty acids (ob/ob mice; [6]): 0.5 mM; plasma total cholesterol (ob/ob mice; [6]): 1.5 g/L; plasma triglycerides (ob/ob mice; [6]): 1.5 g/L; plasma insulin (ob/ob mice; [7]): 447.3 μU/mL and 10.5 μU/mL and 730.1 μU/mL and 505.0 μU/mL and 254.3 μU/mL and 881.0 μU/mL and 810.7 μU/mL and 483.7 μU/mL and 62.6 μU/mL and 256.2 μU/mL; plasma non-esterified fatty acids (ob/ob mice; [7]): 0.429 mM and 0.642 mM and 0.494 mM and 0.481 mM and 0.423 mM (2×) and 0.513 mM and 0.397 mM and 0.687 mM and 0.597 mM; plasma total cholesterol (ob/ob mice; [7]): 1.234 g/L and 0.893 g/L and 1.499 g/L and 1.714 g/L and 1.663 g/L (2×) and 1.625 g/L and 1.587 g/L and 1.36 g/L and 1.272 g/L; plasma triglycerides (ob/ob mice; [7]): 0.875 g/L and 1.886 g/L and 1.511 g/L (2×) and 1.642 g/L and 1.854 g/L and 1.283 g/L and 1.308 g/L and 1.381 g/L and 1.968 g/L; DDct (HMGCoA; [8]): 0.21; DDct (HMGCoA; [9]): −0.39 and 0.32 and 0.09 and −0.08 and 0.87 and 0.63 and −0.03 and 0.10 and 0.35 and 0.20; DDct (HMGCoA; [10]): 0.33; DDct (HMGCoA; [11]): 0.57 and 1.06 and 0.58 and −0.40 and 0.77 and −0.64; Dct (HMGCoA; [8]): 13.1; Dct (HMGCoA; [9]): 12.48 and 13.19 and 12.96 and 12.79 and 13.74 and 13.5 and 12.84 and 12.97 and 13.22 and 13.07; Dct (HMGCoA; [10]): 13.2; Dct (HMGCoA; [11]): 13.44 and 13.93 and 13.45 and 12.47 and 13.64 and 12.23; 2DDct (HMGCoA; [8]): 0.89; 2DDct (HMGCoA; [9]): 1.31 and 0.80 and 0.94 and 1.05 and 0.55 and 0.64 and 1.02 and 0.93 and 0.78 and 0.87; 2DDct (HMGCoA; [10]): 0.88; 2DDct (HMGCoA; [11]): 0.67 (2×) and 0.48 and 1.32 and 0.58 and 1.55; HMGCoA (HMGCoA; [8]): 25.3; HMGCoA (HMGCoA; [9]): 25.94 and 26.3 and 24.57 and 26.14 and 25.77 and 26.85 and 24.44 and 24.76 and 24.36 and 24.19; HMGCoA (HMGCoA; [10]): 25.4; HMGCoA (HMGCoA; [11]): 26.35 and 26.22 and 25.65 and 25.5 and 25.13 and 23.49

Source: patent publication US10183015B2, “Heterocyclic compounds and methods of use” (Medivation Technologies LLC, priority 2015, dated 2019)
